Patent US6281356A, “Substituted pyrroles” (Hoffmann-La Roche Inc., priority 2000, dated 2001)

test system: epithelial breast carcinoma cell line (MDAMB-435); assay: Antiproliferative activity (growth inhibition, MTT), epithelial breast carcinoma cell line MDAMB-435; format: cell-based; conditions: Homo sapiens, MDA-MB-435, 120 h, 5 days post drug addition, 0.1% DMSO, read-out: IC50 (growth inhibition of MDAMB-435 cells)
Description: The epithelial breast carcinoma cell line (MDAMB-435) was purchased from ATCC (American Type Cell Culture Collection) and was grown in culture medium as recommended by ATCC. For analysis of the effect of various compounds of formula I on the growth of these cells, the cells were plated at a concentration of 1500 cells/well in a 96 well tissue culture plate ("test plate"). The day after the cells were plated, the compounds to be analyzed were dissolved in 100% DMSO (dimethyl sulfoxide) to yield at 10 mM stock solution. Each compound was diluted in H2 O to 1 mM and was added to triplicate wells in the first row of a 96 well master plate containing medium to yield a final concentration of 40 μM. The compounds were then serially diluted in medium in the "master plate". The diluted compound(s) were then transferred to test plates containing cells. A row of vehicle "control cells" received DMSO. The final concentration of DMSO in each well was 0.1%. 5 days post drug addition, the plate was analyzed as described below.
MTT (3-(4-5 methyl thiazole-2-yl)-2,5-diphenyl tetrazolium bromide; thiazolyl blue) was added to each well to yield a final concentration of 1 mg/ml. The plate was then incubated at 37° C. for 21/2-3 hours. The MTT-containing medium was then removed and 50 μl of 100% ethanol was added to each well to dissolve the formazan. The absorbences were then read using an automated plate reader (Bio-tek microplate reader). IC50 s were calculated using the Reed and Munsch equation, see Am. J. Hygiene Vol. 27 pgs. 493-497,1938.

IC50 [nM] | SMILES
20 | COc1ccc2c(C3=C(c4cn(C)c5cc(N6CCOCC6)ccc45)C(=O)NC3=O)cn(C)c2c1 [Example 14a, 3-(6-Methoxy-1-methyl-1H-indol-3-yl)-4-(1-methyl-6-morpholin-4-yl-1H-indol-3-yl)pyrrole-2,5-dione]
30 | Cn1cc(C2=C(c3cn(C)c4cc(N5CCOCC5)ccc34)C(=O)NC2=O)c2ccc(F)cc21 [Example 14b, 3-(6-Fluoro-1-methyl-1H-indol-3-yl)-4-(1-methyl-6-morpholin-4-yl-1H-indol-3-yl)pyrrole-2,5-dione]
2 | Cn1cc(C2=C(c3cn(C)c4cc(N5CCOCC5)ccc34)C(=O)NC2=O)c2ccc(Cl)cc21 [Example 14c, 3-(6-Chloro-1-methyl-1H-indol-3-yl)-4-(1-methyl-6-morpholin-4-yl-1H-indol-3-yl)pyrrole-2,5-dione]
3 | Cn1cc(C2=C(c3cn(C)c4cc(N5CCOCC5)ccc34)C(=O)NC2=O)c2ccc(Br)cc21 [Example 14d, 3-(6-Bromo-1-methyl-1H-indol-3-yl)-4-(1-methyl-6-morpholin-4-yl-1H-indol-3-yl)pyrrole-2,5-dione]
50 | Cn1cc(C2=C(c3cn(C)c4cc(C(F)(F)F)ccc34)C(=O)NC2=O)c2ccc(N3CCOCC3)cc21 [Example 14e, 3-(1-Methyl-6-morpholin-4-yl-1H-indol-3-yl)-4-(1-methyl-6-trifluoromethyl-1H-indol-3-yl)pyrrole-2,5-dione]
5 | Cn1cc(C2=C(c3cn(C)c4cc(N5CCCC5)ccc34)C(=O)NC2=O)c2ccc(Br)cc21 [Example 14f, 3-(6-Bromo-1-methyl-1H-indol-3-yl)-4-(1-methyl-6-pyrrolidin-1-yl-1H-indol-3-yl)pyrrole-2,5-dione]
40 | COc1ccc2c(C3=C(c4cn(C)c5cc(N6CCCC6)ccc45)C(=O)NC3=O)cn(C)c2c1 [Example 14g, 3-(6-Methoxy-1-methyl-1H-indol-3-yl)-4-(1-methyl-6-pyrrolidin-1-yl-1H-indol-3-yl)pyrrole-2,5-dione]
80 | Cn1cc(C2=C(c3cn(C)c4cc(C(F)(F)F)ccc34)C(=O)NC2=O)c2ccc(N3CCCC3)cc21 [Example 14h, 3-(1-Methyl-6-pyrrolidin-1-yl-1H-indol-3-yl)-4-(1-methyl-6-trifuloromethyl-1H-indol-3-yl)pyrrole-2,5-dione]
10 | Cn1cc(C2=C(c3cn(C)c4cc(N5CCCC5)ccc34)C(=O)NC2=O)c2ccc(Cl)cc21 [Example 14i, 3-(6-Chloro-1-methyl-1H-indol-3-yl)-4-(1-methyl-6-pyrrolidin-1-yl-1H-indol-3-yl)pyrrole-2,5-dione]

Continued, molecule first:

SMILES | IC50 [nM]
Cn1cc(C2=C(c3c[nH]c4cc(N5CCCC5)ccc34)C(=O)NC2=O)c2ccc([N+](=O)[O-])cc21 [Example 12h, 3-(1-Methyl-6-nitro-1H-indol-3-yl)-4-(6-pyrrolidin-1-yl-1H-indol-3-yl)pyrrole-2,5-dione] | 2
Cn1cc(C2=C(c3c[nH]c4ccccc34)C(=O)NC2=O)c2ccc(N3CCCC3)cc21 [Example 12i, 3-(1H-indol-3-yl)-4-(1-methyl-6-pyrrolidin-1-yl-1H-indol-3-yl)-pyrrole-2,5-dione] | 80
Cn1cc(C2=C(c3cn(C)c4cc(N5CCCC5)ccc34)C(=O)NC2=O)c2ccccc21 [Example 12j, 3-(1-Methyl-1H-indol-3-yl)-4-(1-methyl-6-pyrrolidin-1-yl-1H-indol-3-yl)pyrrole-2,5-dione] | 60
CN1CCN(c2ccc3c(C4=C(c5cn(C)c6ccccc56)C(=O)NC4=O)cn(C)c3c2)CC1 [Example 12k, 3-(1-Methyl-1H-indol-3-yl)-4-[1-methyl-6-(4-methyl-piperazin-1-yl)-1H-indol-3-yl]pyrrole-2,5-dione] | 3410
Cn1cc(C2=C(c3cn(C)c4cc(N5CCCCC5)ccc34)C(=O)NC2=O)c2ccccc21 [Example 12l, 3-(1-Methyl-1H-indol-3-yl)-4-(1-methyl-6-piperidin-1-yl-1H-indol-3-yl)pyrrole-2,5-dione] | 230
COCn1cc(C2=C(c3cn(C)c4cc(F)ccc34)C(=O)NC2=O)c2ccc(N3CCOCC3)cc21 [Example 12m, 3-(6-Fluoro-1-methyl-1H-indol-3-yl)-4-(1-methoxymethyl-6-morpholin-4-yl-1H-indol-3-yl)pyrrole-2,5-dione] | 170
Cn1cc(C2=C(c3c[nH]c4cc(N5CCOCC5)ccc34)C(=O)NC2=O)c2ccc(F)cc21 [Example 12n, 3-(6-Fluoro-1-methyl-1H-indol-3-yl)-4-(6-morpholin-4-yl-1H-indol-3-yl)-pyrrole-2,5-dione] | 12
Cn1cc(C2=C(c3c[nH]c4cc(N5CCOCC5)ccc34)C(=O)NC2=O)c2ccccc21 [Example 12o, 3-(1-Methyl-1H-indol-3-yl)-4-(6-morpholin-4-yl-1H-indol-3-yl)pyrrole-2,5-dione] | 37
Cn1cc(C2=C(c3cn(C)c4cc(N5CCOCC5)ccc34)C(=O)NC2=O)c2ccc(C#N)cc21 [Example 13, 1-Methyl-3-[4-(1-methyl-6-morpholin-4-yl-1H-indol-3-yl)-2,5-dioxo-2,5-dihydro-1H-pyrrole-3-yl]-1H-indole-6-carbonitrile] | 4
Cn1cc(C2=C(c3cn(C)c4cc(N5CCCC5)ccc34)C(=O)NC2=O)c2ccc(C#N)cc21 [Example 15, 1-Methyl-3-[4-(1-methyl-6-pyrrolidin-1-yl-1H-indol-3-yl)-2,5-dioxo-2,5dihydro-1H-pyrrole-3-yl]-1H-indole-6-carbonitrile] | < 10
COCc1ccc2c(C3=C(c4cn(C)c5cc(N6CCOCC6)ccc45)C(=O)NC3=O)cn(C)c2c1 [Example 16, 3-(6-methoxymethyl-1-methyl-1H-indol-3-yl)-4-(1-methyl-6-morpholin-4-yl-1H-indol-3-yl)pyrrole-2,5-dione] | 1180
Cn1cc(C2=C(c3cn(C)c4cc([N+](=O)[O-])ccc34)C(=O)NC2=O)c2ccc(OCCn3ccnc3)cc21 [Example 17, 3-[6-(2-Imidazol-1-yl-ethoxy)-1-methyl-1H-indol-3-yl]-4-(1-methyl-6-nitro-1H-indol-3-yl)pyrrole-2,5-dione] | 70
Cn1cc(C2=C(c3cn(C)c4cc([N+](=O)[O-])ccc34)C(=O)NC2=O)c2ccc(-c3cncnc3)cc21 [Example 18, 3-(1-Methyl-6-nitro-1H-indol-3-yl)-4-(1-methyl-6-pyrimidin-5-yl-1H-indol-3-yl)pyrrole-2,5-dione] | 50
Cn1cc(C2=C(c3cn(C)c4cc(-c5cncnc5)ccc34)C(=O)NC2=O)c2ccccc21 [Example 19, 3-(1-Methyl-1-indol-3-yl)-4-(1-methyl-6-pyrimidin-5-yl-1H-indol-3-yl)pyrrole-2,5-dione] | 80
